Experimental data as given in ChEMBL document CHEMBL6114967, “Design and synthesis of novel sulfur-substituted triptolide with the ability to induce autophagy through inhibition of SRSF1 expression” (Eur J Med Chem, 2025).
Activity calls are given as the source filed them. The calls are words filed in the database; no cut-off is given here.

How the values were obtained:
HGC-27 [1] = experiment: Downregulation of SRSF1 mRNA expression in human HGC-27 cells incubated for 24 hrs by SYBR green dye based RT-qPCR analysis; type: functional, cell-based; details: dose 0.5-2 µM
HepG2 = experiment: Antiproliferative activity against human HepG2 cells assessed as inhibition of cell proliferation incubated for 72 hrs by MTT assay; type: functional, cell-based; details: HepG2, 72 h
U-251 = experiment: Antiproliferative activity against human U-251 cells assessed as inhibition of cell proliferation incubated for 72 hrs by MTT assay; type: functional, cell-based; details: U-251, 72 h
BGC-823 = experiment: Antiproliferative activity against human BGC-823 cells assessed as inhibition of cell proliferation incubated for 72 hrs by MTT assay; type: functional, cell-based; details: BGC-823, 72 h
A549 = experiment: Antiproliferative activity against human A549 cells assessed as inhibition of cell proliferation incubated for 72 hrs by MTT assay; type: functional, cell-based; details: A549, 72 h
[2] = Antiproliferative activity against human LO2 cells assessed as inhibition of cell proliferation incubated for 72 hrs by MTT assay; type: toxicity, cell-based, L02
[3] = Selectivity index, ratio of IC50 for antiproliferative activity against human LO2 cells to IC50 for antiproliferative activity against human AGS cells; type: cell-based; details: LO2 cells and AGS cells, read-out: Ratio IC50
HGC-27 [4] = experiment: Induction of apoptosis in human HGC-27 cells assessed as early apoptotic cells at 0.5 uM incubated for 48 hrs by annexin V-FITC and PI staining based flow cytometry analysis (reference value: 3.13%); type: functional
HGC-27 [5] = experiment: Induction of apoptosis in human HGC-27 cells assessed as necrotic cells at 0.5 uM incubated for 48 hrs by annexin V-FITC and PI staining based flow cytometry analysis (reference value: 0.062%); type: functional
HGC-27 [6] = experiment: Induction of apoptosis in human HGC-27 cells assessed as viable cells at 1 uM incubated for 48 hrs by annexin V-FITC and PI staining based flow cytometry analysis (reference value: 91.8%); type: functional; details: read-out: Activity
HGC-27 [7] = experiment: Induction of apoptosis in human HGC-27 cells assessed as necrotic cells at 1 uM incubated for 48 hrs by annexin V-FITC and PI staining based flow cytometry analysis (reference value: 0.062%); type: functional
HGC-27 [8] = experiment: Induction of apoptosis in human HGC-27 cells assessed as viable cells at 2 uM incubated for 48 hrs by annexin V-FITC and PI staining based flow cytometry analysis (reference value: 91.8%); type: functional; details: read-out: Activity
HGC-27 [9] = experiment: Induction of apoptosis in human HGC-27 cells assessed as late apoptotic cells at 2 uM incubated for 48 hrs by annexin V-FITC and PI staining based flow cytometry analysis (reference value: 5.02%); type: functional
AGS [10] = experiment: Induction of apoptosis in human AGS cells assessed as early apoptotic cells at 0.5 uM incubated for 48 hrs by annexin V-FITC and PI staining based flow cytometry analysis (reference value: 4.44%); type: functional
AGS [11] = experiment: Induction of apoptosis in human AGS cells assessed as viable cells at 1 uM incubated for 48 hrs by annexin V-FITC and PI staining based flow cytometry analysis (reference value: 92.0%); type: functional; details: read-out: Activity
AGS [12] = experiment: Induction of apoptosis in human AGS cells assessed as necrotic cells at 1 uM incubated for 48 hrs by annexin V-FITC and PI staining based flow cytometry analysis (reference value: 0.44%); type: functional
AGS [13] = experiment: Induction of apoptosis in human AGS cells assessed as late apoptotic cells at 2 uM incubated for 48 hrs by annexin V-FITC and PI staining based flow cytometry analysis (reference value: 3.15%); type: functional
HGC-27 [14] = experiment: Induction of apoptosis in human HGC-27 cells assessed as increase in cleaved PARP expression at 0.5 to 2 uM incubated overnight by Western blotting analysis; type: functional, cell-based; details: dose 0.5-2 µM
HGC-27 [15] = experiment: Induction of cell cycle arrest in human HGC-27 cells assessed as increase in S phase ratio at 0.5 to 2 uM incubated for 24 hrs by staining based flow cytometric analysis ( Rvb = 50.19%); type: functional; details: dose 0.5-2 µM
AGS [16] = experiment: Induction of cell cycle arrest in human AGS cells assessed as increase in S phase ratio at 0.5 to 2 uM incubated for 24 hrs by staining based flow cytometric analysis ( Rvb = 32.86%); type: functional; details: dose 0.5-2 µM
HGC-27 [17] = experiment: Antitumor activity against human HGC-27 cells xenografted in male BALB/c nude mouse assessed as tumor growth suppression administered intraperitoneally every day for 15 days; type: functional, cell-based; details: dose 25-100 mg/kg, route ip, time 15.0 day
HGC-27 [18] = experiment: Upregulation of BECN1 mRNA expression in human HGC-27 cells at 2 uM incubated for 24 hrs; type: functional, cell-based
HGC-27 [19] = experiment: Upregulation of MAP1LC3B mRNA expression in human HGC-27 cells at 2 uM incubated for 24 hrs; type: functional, cell-based
HGC-27 [20] = experiment: Downregulation of SRSF1 protein level in human HGC-27 cells at 0.5 to 2 uM by Western blotting analysis; type: functional, cell-based; details: dose 0.5-2 µM
AGS [21] = experiment: Downregulation of SRSF1 protein level in human AGS cells at 0.5 to 2 uM by Western blotting analysis; type: functional, cell-based; details: dose 0.5-2 µM
HGC-27 [22] = experiment: Downregulation of Bcl-xl protein level in human HGC-27 cells at 0.5 to 2 uM by Western blotting analysis; type: functional, cell-based; details: dose 0.5-2 µM
AGS [23] = experiment: Downregulation of Bcl-xl protein level in human AGS cells at 0.5 to 2 uM by Western blotting analysis; type: functional, cell-based; details: dose 0.5-2 µM
HGC-27 [24] = experiment: Induction of autophagy in human HGC-27 cells assessed as upregulation of Beclin1 protein level at 0.5 to 2 uM incubated for 48 hrs by Western blotting analysis; type: functional, cell-based; details: dose 0.5-2 µM
AGS [25] = experiment: Induction of autophagy in human AGS cells assessed as upregulation of LC3 II protein level at 0.5 to 2 uM incubated for 48 hrs by Western blotting analysis; type: functional, cell-based; details: dose 0.5-2 µM
AGS [26] = experiment: Induction of autophagy in human AGS cells assessed as upregulation of LC3 I protein level at 0.5 to 2 uM incubated for 48 hrs by Western blotting analysis; type: functional, cell-based; details: dose 0.5-2 µM
HGC-27 [27] = experiment: Induction of autophagy in human HGC-27 cells assessed as downregulation of P62 protein level at 0.5 to 2 uM incubated for 48 hrs by Western blotting analysis; type: functional, cell-based; details: dose 0.5-2 µM
[28] = Toxicity in male ICR mouse assessed as body weight gain at 1 g/Kg, ip measured after 7 days; type: organism-based; details: in vivo, 1000 mg/kg, 168 h, time 7 day
[29] = Toxicity in male ICR mouse assessed as animal death at 1 g/Kg, ip measured after 7 days; type: organism-based; details: in vivo, 1000 mg/kg, 168 h, time 7 day
[30] = Acute toxicity in male ICR mouse assessed as lethal dose administered as ip; details: in vivo
[31] = Acute toxicity in male ICR mouse assessed as abnormal hepatocyte morphology at 1 g/Kg, ip measured after 7 days by H and E staining based light microscopic analysis; type: organism-based; details: in vivo, 1000 mg/kg, 168 h, time 7 day
HGC-27 [32] = experiment: Induction of autophagy in human HGC-27 cells assessed as decrease in P62 protein level in tumor tissue at 25 to 100 mg/kg, ip administered daily; type: functional, organism-based; details: dose 25-100 mg/kg
HGC-27 [33] = experiment: Induction of autophagy in human HGC-27 cells assessed as increase in LC3 II/LC3 I ratio in tumor tissue at 25 to 100 mg/kg, ip administered daily; type: functional, organism-based; details: dose 25-100 mg/kg
HGC-27 [34] = experiment: Induction of autophagy in human HGC-27 cells assessed as increase in green fluorescent number co-treated with chloroquine at 2 uM incubated for 48 hrs by DAPI staining based immunofluorescence analysis; type: functional, cell-based

## CC(C)[C@]12O[C@H]1[C@@H]1O[C@]13[C@]1(O[C@H]1C[C@H]1C4=C(CC[C@@]13C)C(=S)OC4)[C@@H]2O
HGC-27 [1]
  Activity: Dose-dependent-effect
HepG2
  IC50: 0.35 µM
U-251
  IC50: 1.62 µM
BGC-823
  IC50: 1.33 µM
A549
  IC50: 6.93 µM
[2]
  IC50 at 72 h: 2.86 µM
[3]
  selectivity ratio: 4.55
HGC-27 [4]
  Activity: 3.5%
HGC-27 [5]
  Activity: 0.13%
HGC-27 [6]
  viability at 1 µM: 84.5%
HGC-27 [7]
  Activity: 0.11%
HGC-27 [8]
  viability at 2 µM: 52%
HGC-27 [9]
  Activity: 19.7%
AGS [10]
  Activity: 9.27%
AGS [11]
  viability at 1 µM: 65.1%
AGS [12]
  Activity: 0.73%
AGS [13]
  Activity: 31.7%
HGC-27 [14]
  Activity: Active
HGC-27 [15]
  Activity: 75.34%
AGS [16]
  Activity: 52.16%
HGC-27 [17]
  Activity: Dose-dependent-effect
HGC-27 [18]
  Activity: Active
HGC-27 [19]
  Activity: Active
HGC-27 [20]
  Activity: Active
AGS [21]
  Activity: Active
HGC-27 [22]
  Activity: Active
AGS [23]
  Activity: Active
HGC-27 [24]
  Activity: Active
AGS [25]
  Activity: Active
AGS [26]
  Activity: Active
HGC-27 [27]
  Activity: Active
[28]
  Activity: Non-toxic
[29]
  Activity: Non-toxic
[30]
  LD50: > 1000 mg/kg
[31]
  Activity: Non-toxic
HGC-27 [32]
  Activity: Active
HGC-27 [33]
  Activity: Active
HGC-27 [34]
  Activity: Active
